Where “and” joins values, the source holds several entries; their conditions need not be identical. Equal values may be shown once.
Columns and labels:
[1] = In vitro stability in serum; assay type: in vitro ADME, mouse; conditions: up to 120 min at 37 °C
[2] = In vitro stability in serum; assay type: in vitro ADME, human; conditions: up to 120 min at 37 °C
[3] = Dynamic PET/CT and ex vivo biodistribution in uninfected mice; conditions: for ex vivo residual activity in organs versus [18F]FDS: heart, lung, stomach, liver, intestine, kidney, muscle, after 90 min PET/CT; for peak uptake (Cmax) in bladder / peak uptake (Cmax) in kidneys / peak uptake (Cmax) in liver: dynamic PET 90 min; for elimination half-life (T1/2β) / plasma distribution half-life (T1/2α): blood pool TAC, two-compartment fit
Method: To assess the effect of [^18F]-FDS glycosylation on tissue uptake in vivo, we performed dynamic PET/CT scans for 90 min after the intravenous injection of [^18F]-FNT, [^18F]-FMT, and [^18F]-FDS in uninfected mice, followed by ex vivo analysis.
(§1) μPET/CT imaging was conducted using a nanoScan μPET/CT instrument (PET123S/CT1512, Mediso). Mice were anesthetized with 2% isoflurane/oxygen for intravenous administration of ^18F-tracers (∼5 MBq in 150 μL) via tail vein and maintained during data acquisition. PET data of uninfected mice were acquired in the list mode for 90 min, starting immediately after ^18F-tracer administration, followed by a CT scan. The PET data were reconstructed into three-dimensional volumes and coregistered with CT images using manufacturer-provided software in 53 dynamic frames (15 × 2 s, 6 × 5 s, 6 × 10 s, 4 × 30 s, 6 × 30 s, and 16 × 300 s). PET data of infected mice were acquired for 20 min, starting at 70 min postinjection of ^18F-tracer (mid time 80 min), followed by a CT scan. The list mode PET data were reconstructed into three-dimensional volumes in a single static frame. All PET scans were corrected for ^18F decay, dead time, and random coincidences and reconstructed into a 160 × 160 × 184 matrix with voxel size 0.8 mm using a three-dimensional ordered subject expectation maximization (OSEM) algorithm (40 iterations, 1 subset). Both attenuation and scatter corrections were applied to PET reconstructions using the coregistered CT. ROIs were drawn manually around the brain, lungs, liver, kidney, and urinary bladder using Amide software to generate image-derived TACs. For the estimation of blood pool radioactivity over time, ROIs were drawn on the left atrium. To estimate the plasma half-life of tracers, the TAC of the blood pool was fitted to a two-compartment model using a biexponential decay function: C t(t) = Ae ^–αt + Be ^ ‑βt , where C t(t) is the tracer concentration (% IDcc^–1) at time (t), A and B are the intercepts, and α and β are the distribution and elimination rate constants, respectively. , Quantitative uptake values are expressed as % IDcc^–1, representing the percent of the total injected dose per cubic centimeter. For the S. aureus myositis model, identical volume ROIs were drawn corresponding to the peak uptake of [^18F]-FNT at the live S. aureus inoculated site and heat-killed S. aureus inoculated site, respectively.

K. pneumoniae = assay: PET/CT in K. pneumoniae pneumonia murine model; assay type: in vivo, mice; conditions: for PET signal in heat-killed K. pneumoniae inoculated lungs: 10x heat-killed K. pneumoniae; for ex vivo infected/uninfected lung ratio: ex vivo gamma counting after PET; for ROI-derived infected/uninfected lung ratio: in vivo PET, 80 min postinjection (mid time), 24 h after intranasal K. pneumoniae
Method: Given promising low background signals in uninfected mice, we further evaluated [^18F]-FNT and [^18F]-FMT in two different clinically relevant mouse models of lung and muscle infections. […] PET scanning was performed at 24 h postintranasal bacterial installation (Figure A). […] The ROI-derived infected/uninfected lung ratios of [^18F]-FDS, [^18F]-FMT, and [^18F]-FNT were approximately 3.2, 6.1, and 5.9-fold, respectively (Figure C), also supported by the ex vivo infected/uninfected lung ratio of [^18F]-FDS (∼1.6-fold), [^18F]-FMT (∼5.7-fold), and [^18F]-FNT (∼5.7-fold) (Figure D). Post-PET scans, infected lungs were harvested to determine colony forming units (CFUs). No significant differences in bacterial counts were observed among [^18F]-FDS, [^18F]-FMT, and [^18F]-FNT (Figure E). To confirm radiotracer specificity, we also evaluated mice inoculated with 10x heat-killed K. pneumoniae into lungs (Supporting Information Figure S5A–C).
All animal procedures were conducted in accordance with UCSF institutional guidelines and were approved by the Institutional Animal Care and Use Committee (IACUC). Female CBA/J mice (9 and 11 weeks old) were used for the study. Pulmonary infection and bacterial myositis models were established based on previously published protocols. , For pulmonary infection, 50 μL of K. pneumoniae (5 × 10^6 CFU) or 10× heat-killed K. pneumoniae were administered intranasally under anesthesia 24 h prior to imaging using PET. After PET scans, infected lungs were homogenized in PBS and plated on LB agar. Plates were incubated overnight at 37 °C to quantify the bacterial burden. For the bacterial myositis model, mice were intramuscularly injected with either 1 × 10^6 CFUs of live S. aureus (MSSA or MRSA) or 1 × 10^7 CFUs of heat-killed bacteria (50 μL) into the left and right deltoid muscles, respectively, 10 h prior to imaging using PET. Immediately following all imaging studies, target tissues were harvested, and radioactivity was measured using a gamma counter.
as §1, with “For the S. aureus myositis model, identical volume ROIs were drawn corresponding to the peak uptake of [^18F]-FNT at the live S. aureus inoculated site and heat-killed S. aureus inoculated site, respectively.” left out

OC[C@@H](O)[C@@H](O[C@H]1O[C@H](CO)[C@@H](O)[C@H](O)[C@H]1O)[C@H](O)[C@@H]([18F])CO [[18F]FMT, 2-deoxy-2-[18F]fluoro-D-maltitol]
in vitro stability in mouse serum [1]: intact
in vitro stability in human serum [2]: intact
ex vivo residual activity in organs versus [18F]FDS [3]: significantly lower residual activity
peak uptake (Cmax) in bladder ([3]; uninfected mice, i.v.): 562.7 ± 31.3 % IDcc^–1
peak uptake (Cmax) in kidneys ([3]; uninfected mice, i.v.): 102.3 ± 8.4 % IDcc^–1
peak uptake (Cmax) in liver ([3]; uninfected mice, i.v.): 17.7 ± 0.9 % IDcc^–1
elimination half-life (T1/2β) ([3]; uninfected mice): 12.70 min
plasma distribution half-life (T1/2α) ([3]; uninfected mice): 0.55 min
PET signal in heat-killed K. pneumoniae inoculated lungs (K. pneumoniae): No visible signal
ex vivo infected/uninfected lung ratio (K. pneumoniae): ~5.7 fold
ROI-derived infected/uninfected lung ratio (K. pneumoniae): ~6 fold and ~6.1 fold

OC[C@@H](O)[C@@H](O)[C@H](O[C@H]1O[C@H](CO)[C@@H](O)[C@H](O)[C@H]1O)[C@@H]([18F])CO [[18F]FNT, 2-deoxy-2-[18F]fluoro-D-nigeritol]
in vitro stability in mouse serum [1]: intact
in vitro stability in human serum [2]: intact
ex vivo residual activity in organs versus [18F]FDS [3]: significantly lower residual activity
area under the curve (AUC0→90min) in bladder ([3]; uninfected mice, i.v.): 44418.3 ± 950.9 % IDcc^–1·min
area under the curve (AUC0→90min) in liver ([3]; uninfected mice, i.v.): 105.7 ± 4.0 % IDcc^–1·min
peak uptake (Cmax) in bladder ([3]; uninfected mice, i.v.): 606.8 ± 9.0 % IDcc^–1
peak uptake (Cmax) in kidneys ([3]; uninfected mice, i.v.): 104.5 ± 14.2 % IDcc^–1
peak uptake (Cmax) in liver ([3]; uninfected mice, i.v.): 19.2 ± 0.9 % IDcc^–1
elimination half-life (T1/2β) ([3]; uninfected mice): 14.07 min
plasma distribution half-life (T1/2α) ([3]; uninfected mice): 0.52 min
PET signal in heat-killed K. pneumoniae inoculated lungs (K. pneumoniae): No visible signal
ex vivo infected/uninfected lung ratio (K. pneumoniae): ~5.7 fold
ROI-derived infected/uninfected lung ratio (K. pneumoniae): ~6 fold and ~5.9 fold

Source: PMC12728616, “Regioselective Glycosylation of Fluorine-18-Labeled Sorbitol for Enhanced Bacterial Detection In Vivo Using PET” (JACS Au, 2025)
